According to US11267807B2, “Use of small molecule inhibitors to KLF10 for modulation of T regulatory cells and cancer immunotherapy” (THE BRIGHAM AND WOMEN'S HOSPITAL, INC., priority 2015, dated 2022):
Like-named read-outs stand apart in the source and are kept apart here. One block for each compound: values may come before it.

Assays:
Foxp3 = Foxp3 expression by qPCR during conversion of CD4+CD25− T cells to T regs; format: cell-based, mouse; settings: 50 μM, FIG. 5
Experimental: Taken together, these observations indicate that these compounds effectively suppress the KLF10 target gene Foxp3, a critical regulator of T reg cell differentiation.^28
T cells were suspended in TRIzol® reagent (Invitrogen), and total RNA was isolated according to the manufacturer's instructions. Reverse transcriptions were performed by using the Reverse Transcription Kit and QuantiTect SYBR Green reverse transcription-PCR kit from Qiagen for quantitative real-time quantitative PCR analysis on a Mx3000P real-time PCR system (Stratagene) following the manufacturer's instructions. Primers were used to detect mouse FoxP3 as previously described.^12
Mouse spleens were meshed through a cell strainer into Phosphate Buffered Saline (PBS) with 2% Fetal Bovine Serum and 1% Penicillin/Streptomycin, and cells were collected by spinning at 1000 rpm for 10 min. CD4+CD25− T cells were purified by using CD4+CD25+ T cell isolation kit (Miltenyi Biotec) according to the manufacturer's instructions. Briefly, cells were incubated with Biotin-conjugated antibodies, followed by anti-biotin microbeads and PE-conjugated anti-CD25 antibody for 30 min on ice with gentle shaking. […] For flow cytometry, cells were stained with anti-mouse CD25 Alexa Fluo®488 (eBioscience) and analyzed by using multicolor FACS (ARIA; BD Biosciences) as previously described.^12

CD4+CD25− T cells = experiment: T regulatory cell differentiation assay, flow cytometry; format: cell-based, mouse; settings: 3 days culture, FIG. 4A-4C
Experimental: Mouse spleens were meshed through a cell strainer into Phosphate Buffered Saline (PBS) with 2% Fetal Bovine Serum and 1% Penicillin/Streptomycin, and cells were collected by spinning at 1000 rpm for 10 min. CD4+CD25− T cells were purified by using CD4+CD25+ T cell isolation kit (Miltenyi Biotec) according to the manufacturer's instructions. Briefly, cells were incubated with Biotin-conjugated antibodies, followed by anti-biotin microbeads and PE-conjugated anti-CD25 antibody for 30 min on ice with gentle shaking. Mixtures were loaded into pre-washed LD columns in the Magnetic field, and CD4+ cells were collected and then incubated with anti-PE microbeads. Mixtures were loaded into pre-washed MS columns in the magnetic field to collect CD4+CD25− T cells (non-bound cell fraction). Cells were plated into 12-well plates pre-coated with 1 μg/mL anti-CD3e (eBioscience) overnight in RPMI1640 Medium with 10% FBS, 1% Penicillin/Streptomycin, 1% non-essential amino acids, and 2-mercaptoethanol, 1 μg/mL anti-CD28 (BD Biosciences), and 1 ng/mL TGF-β1 (Peprotech). Cells were cultured at 37° C. up to five days for the conversion of CD4+CD25− T cells to CD4+CD25+ T regs. For flow cytometry, cells were stained with anti-mouse CD25 Alexa Fluo®488 (eBioscience) and analyzed by using multicolor FACS (ARIA; BD Biosciences) as previously described.^12

B16 melanoma tumor = experiment: In vivo B16 melanoma tumor model; set-up: species or system mice
TGF-beta1 = TGF-beta1 expression in CD4+ T cells isolated from B16 melanoma tumors; format: in vivo; settings: mice injected i.p., FIG. 14
KLF10 [1] = target: T1, KLF10 (Homo sapiens, UniProt Q13118); experiment: KLF10 CACCC-luciferase reporter assay in transfected HeLa cells; format: cell-based; set-up: host or cells: HeLa; settings: for inhibition at 100 µM: HeLa
T1 sequence (Q13118 1-480): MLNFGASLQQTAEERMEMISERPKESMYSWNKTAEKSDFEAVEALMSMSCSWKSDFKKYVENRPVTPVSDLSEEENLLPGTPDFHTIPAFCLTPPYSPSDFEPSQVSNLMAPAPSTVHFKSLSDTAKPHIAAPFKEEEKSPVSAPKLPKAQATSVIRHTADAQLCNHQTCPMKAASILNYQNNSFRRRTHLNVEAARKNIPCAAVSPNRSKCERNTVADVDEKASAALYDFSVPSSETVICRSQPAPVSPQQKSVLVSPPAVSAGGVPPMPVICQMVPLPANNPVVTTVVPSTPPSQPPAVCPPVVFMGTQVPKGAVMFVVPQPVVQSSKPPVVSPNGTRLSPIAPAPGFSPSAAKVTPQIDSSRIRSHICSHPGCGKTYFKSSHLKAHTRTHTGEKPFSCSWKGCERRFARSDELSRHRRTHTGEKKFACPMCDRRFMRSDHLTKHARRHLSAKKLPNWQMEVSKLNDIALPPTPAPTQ

KLF10 [2] = target: T1, KLF10; experiment: Gel mobility shift assay, KLF10 DNA-binding activity; set-up: GST (N); purchased Novus Biologicals
Experimental: The identified small molecule compounds were next examined for effects on KLF10 DNA-protein binding.
KLF10 recombinant protein was obtained from Novus Biologicals. Oligonucleotides 5′-[…] End-labeled oligos (1 μmol/L) were annealed in a buffer system with 10 mM Tris, 50 mM NaCl, pH 8.0 by heating at 95° C. for 5 min, then slowly cooled to 65° C. for 30 min incubation, and cooled to room temperature. […] Compounds were incubated with KLF10 in a reaction system for 4 hrs at room temperature, and then Biotin-labeled probes were added for a 1 hr incubation. Binding reactions were electrophoresed for 80 min at 100 volts on 6% polyacrylamide gel in 0.5×TBE. The binding reactions were transferred to nylon membranes at 100 volts for 45 min, and transferred DNA was cross-linked to membrane using an HL-2000 Hybrilinker instrument. Biotin-labeled DNAs were detected by chemiluminescence.

prostate TRAMP-C2 tumors = experiment: In vivo prostate TRAMP-C2 tumor model; settings: systemic delivery i.p. Day 3, 200 mg/kg, FIG. 13
GLI = target: T2, GLI (Homo sapiens, UniProt P08151); settings: 30 μM, transfected HEK293 cells; cited from earlier work
T2 construct: host or cells: HEK293 (transfected)
T2 sequence (P08151 1-1106): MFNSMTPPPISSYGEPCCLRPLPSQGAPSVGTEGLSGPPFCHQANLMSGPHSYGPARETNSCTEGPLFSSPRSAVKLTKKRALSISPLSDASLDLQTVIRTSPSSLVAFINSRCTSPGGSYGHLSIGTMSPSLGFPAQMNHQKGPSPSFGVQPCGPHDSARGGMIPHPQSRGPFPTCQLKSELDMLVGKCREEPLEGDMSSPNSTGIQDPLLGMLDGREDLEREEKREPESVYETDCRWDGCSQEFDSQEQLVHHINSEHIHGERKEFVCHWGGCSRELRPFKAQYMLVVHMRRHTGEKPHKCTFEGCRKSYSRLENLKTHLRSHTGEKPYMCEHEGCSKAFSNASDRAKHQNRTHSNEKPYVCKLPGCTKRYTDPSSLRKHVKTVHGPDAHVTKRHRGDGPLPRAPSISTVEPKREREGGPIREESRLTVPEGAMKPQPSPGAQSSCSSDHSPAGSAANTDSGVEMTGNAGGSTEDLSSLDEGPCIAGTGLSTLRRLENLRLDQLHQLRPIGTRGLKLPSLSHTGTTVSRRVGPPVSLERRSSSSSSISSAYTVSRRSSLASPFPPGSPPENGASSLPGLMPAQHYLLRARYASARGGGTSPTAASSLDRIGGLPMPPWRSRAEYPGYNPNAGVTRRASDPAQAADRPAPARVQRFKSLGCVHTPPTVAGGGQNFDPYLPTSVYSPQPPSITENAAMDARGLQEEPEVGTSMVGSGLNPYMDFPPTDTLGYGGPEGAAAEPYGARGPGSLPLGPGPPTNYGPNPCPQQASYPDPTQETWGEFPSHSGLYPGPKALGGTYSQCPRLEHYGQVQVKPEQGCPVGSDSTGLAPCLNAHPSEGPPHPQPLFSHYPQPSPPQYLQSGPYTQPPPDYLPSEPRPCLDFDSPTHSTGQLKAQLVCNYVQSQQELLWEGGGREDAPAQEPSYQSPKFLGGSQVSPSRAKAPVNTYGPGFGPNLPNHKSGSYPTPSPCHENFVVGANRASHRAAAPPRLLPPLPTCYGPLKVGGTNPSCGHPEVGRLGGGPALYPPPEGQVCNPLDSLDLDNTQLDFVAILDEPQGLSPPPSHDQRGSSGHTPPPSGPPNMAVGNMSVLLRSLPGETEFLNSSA

[3] = KLF10 reporter activity, 100 μM, Table 1, read-out: % Inhibition at 100 μM (± sd)
[4] = concentration that inhibited 50% of KLF10 reporter activity, Table 1, read-out: IC50

Structure (SMILES): Cc1sc2nc(SCC(=O)c3ccc(O)c(O)c3)nc(O)c2c1C [#15-09]
inhibition of Foxp3 expression (Foxp3): 90.8%
inhibition of the percentage of CD4+CD25+ T regs (CD4+CD25− T cells): 29.2%

induction of luciferase activity by exogenous KLF10 expression blocked (KLF10 [1]; 100 μM, FIG. 1C): 96.6%
inhibition at 100 µM (KLF10 [1]; [3]): 54.5 ± 8%
inhibition at 100 µM (KLF10 [1]; KLF10 reporter activity, 100 μM, Table 2, read-out: % Inhibition 100 μM (± sd)): 54.5 ± 8%
IC50 (KLF10 [1]; KLF10 reporter activity, Table 2, read-out: IC50): 112 µM
IC50 (KLF10 [1]; [4]): 112 µM
IC50 (KLF10 [1]; non-linear regression of dose-response, FIG. 2A-2C, read-out: IC50 on KLF10 transcriptional activity): 112 µM
inhibition at 8 µM (KLF10 [2]; 8 μM): 11%
inhibition at 40 µM (KLF10 [2]; 40 μM): 25%
Structure (SMILES): Cc1ccc(OCC(=O)c2cc(C)c(O)cc2O)cc1 [#48]
B16 melanoma tumor inhibition (B16 melanoma tumor; local injection Day 0, 20 mg/kg, FIG. 11): inhibits
B16 melanoma tumor model inhibition (B16 melanoma tumor; systemic delivery i.p. Day 3, 200 mg/kg, FIG. 12): inhibits
inhibition of Foxp3 expression (Foxp3): 84.7%
TGF-beta1 expression in CD4+ T cells from tumors (TGF-beta1): reduced TGF-beta1 expression
inhibition of the percentage of CD4+CD25+ T regs (CD4+CD25− T cells): 57.4%
prostate TRAMP-C2 tumor inhibition (prostate TRAMP-C2 tumors): inhibits

inhibition at 100 µM (KLF10 [1]; [3]): 61.7 ± 2.6%
IC50 (KLF10 [1]; [4]): 10 µM
Structure (SMILES): Cc1cc(C(=O)Nc2cnc(O)nc2O)ccc1[N+](=O)[O-] [#77]

inhibition at 100 µM (KLF10 [1]; [3]): 31.9 ± 0.4%
Structure (SMILES): OC1=CN=C(O)/C1=C/Nc1ccccc1O [#82]

Structure (SMILES): c1cc(-c2sc(-c3ccncc3)c(-c3ccncc3)c2-c2ccncc2)ccn1 [GANT58]
GLI-induced transcription (GLI): inhibited

Structure (SMILES): CN(C)c1ccccc1CN1CCCN(Cc2ccccc2N(C)C)C1c1ccncc1 [GANT61]
GLI-induced transcription (GLI): inhibited

inhibition at 100 µM (KLF10 [1]; [3]): 71.8 ± 0.9%
IC50 (KLF10 [1]; [4]): 50 µM
Structure (SMILES): Cc1ccc(C(=O)c2cc(O)c(O)c([N+](=O)[O-])c2)cc1 [Tolcapone, reference compound]
